Measurements published in patent US8017350B2, “Glimepiride- and insulin-induced glycosylphosphatidylinositol-specific phospholipase C regulation” (Sanofi-Aventis Deutschland GmbH, priority 2004, dated 2011).

Molecular target: PI-PLC, Bacillus cereus (recombinant) (Bacillus cereus, UniProt P14262)
Assay: Inhibition of PI-PLC (B. cereus), cleavage of GPI-protein, TX-114 partitioning
Assay type: biochemical
From the text: Human recombinant insulin, PIG41 (disclosed in “Frick, W. et al., (1998) Biochemistry 37, 13421-13436”) and glimepiride (trade name Amaryl) were supplied by the medicinal chemistry and synthesis departments of Aventis Pharma Germany (Frankfurt, Germany). 12-((7-nitrobenz-2-oxa-1,3-diazol-4-yl)amino)dodecanoic acid (NBD-FA) was synthesized as described in Müller et al., (1997) Biochem. Biophys. Acta 1347: 23-39. Collagenase (Worthington, CLS, type I, 250 units/mg) was provided by Biochrom (Berlin, Germany). Lipoprotein lipase (LPL, affinity-purified) from bovine milk, phospholipase A2 (honey bee venom), crude porcine pancreatic lipase (PL), recombinant PC- and PI-PLC (Bacillus cereus), crude PLD (cabbage) and defatted BSA (fraction V) were delivered by SigmalAldrich (Deisenhofen, Germany), crude PI-PLC (rat liver) and proteinase inhibitors were purchased from Roche Molecular Biochemicals (Mannheim, Germany). Recombinant GPI-PLC (Trypanosoma brucei) was obtained from Oxford Glycosystems (Oxford, UK). Inhibitors of PLA2 (AACOCF3) and PLC (U 73122) were from Tocris (Avonmouth, UK). Bisbodipy-C11-PC was bought from Molecular Probes (Eugene, Oreg.). Lipids were purchased from Avanti Polar Lipids (Birmingham, Ala.). […]

Chain of PI-PLC, Bacillus cereus (recombinant) (P14262 32-329 limits assumed): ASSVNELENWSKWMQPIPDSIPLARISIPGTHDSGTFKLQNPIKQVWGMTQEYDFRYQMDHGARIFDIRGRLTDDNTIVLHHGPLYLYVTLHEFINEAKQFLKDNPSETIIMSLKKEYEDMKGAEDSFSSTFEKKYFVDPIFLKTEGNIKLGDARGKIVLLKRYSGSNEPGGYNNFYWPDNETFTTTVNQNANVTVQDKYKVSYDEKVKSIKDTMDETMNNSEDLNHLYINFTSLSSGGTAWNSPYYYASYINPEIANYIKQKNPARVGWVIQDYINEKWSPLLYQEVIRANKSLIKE

SMILES: CCCCCCCCCCCCP1(=O)O[C@@H]2[C@H](O)[C@@H](O)[C@H](O)[C@@H](O)[C@@H]2O1 (stereo partly shown) [GPI-2350, myo-inositol-1,2-cyclo-dodecylphosphonic acid]
- inhibition in words: potent inhibitor
